The numbers were not newly measured in PMC12676331 (ACS Omega, 2025), which cites them from elsewhere.

One data set has as its system G-protein. As to conditions: in vitro and in vivo; ref number not given.
The subject of a further data set is P23H rod opsin. The following applies: ref number not given.
A further data set concerns rod opsin mutants. As to conditions: in vitro; ref number not given.
The test system of data set [1] is T17M Rho mouse model of RP. The following applies: ref number not given.

As to 11-cis-6-membered-ring-retinal, in the data set on G-protein, the G-protein activation entry was “can partially activate G-protein”.
Regarding 11-cis-7-membered-ring-retinal, the G-protein activation entry in the data set on G-protein is listed as “does not activate G-protein”. The “maturation and membrane expression of P23H rod opsin” value in the data set with P23H rod opsin was “improve the maturation and membrane expression of P23H rod opsin”.
Turning to `CC(=C/C(=O)O)/C=C/C=C(\C)C1C=C2C(C)(C)CCCC2(C)O1` (stereo not drawn) [13-cis-5,8-ERA, 8-epoxy-13-cis-retinoic acid], the “folding and membrane trafficking of rod opsin mutants” value in the data set on rod opsin mutants is “promoted proper folding and membrane trafficking”.
Take `CC1=C(/C=C/C(=O)N2CCN(C(N)=O)CC2)C(C)(C)CCC1` [SRD005825]: the photoreceptor survival entry in data set [1] is “improved photoreceptor survival”. Moreover, in the data set on rod opsin mutants, the “folding and membrane trafficking of rod opsin mutants” value is “promoted proper folding and membrane trafficking”.
